Test [1] concerns twelve food-borne and clinical bacterial strains. The format is cell-based. The settings on record: ratio of MIC values, Table 2. On the procedure: Initial activity experiments were carried out with twelve strains from seven bacterial species representing common laboratory strains and clinical strains derived from both food-borne and nosocomial infections (Table 1). Stock cultures were stored at -80°C in 4% (w/v) glycerol, 0.5% (w/v) glucose, 2% (w/v) skimmed milk powder and 3% (w/v) tryptone soy powder. All experiments were carried out with bacteria incubated for one night (i.e. approximately 18 hours) at 37°C. Experiments were performed in cation-adjusted Mueller Hinton II broth (MHB) (Becton Dickinson 212322) adjusted to pH 7.4 or Tryptone Soy Broth (TSB) (Oxoid CM0129) for the ATP leakage assays. Brain Heart Infusion (BHI) (CM1135) with agar (VWR 20768.292) 1.5% as gelling agent was used throughout for colony plating.
The Minimum Inhibitory Concentration (MIC) of the chimeras was determined against the spectrum of bacteria using the microdilution method according to guidelines of the Clinical and Laboratory Standards Institute (CLSI). Chimera 1:2 serial dilutions were prepared from 1,024 μg/mL stock solutions to give a final range of 512-0.5 μg/mL in the wells. This corresponds to a final range of 144 to 0.14 μM for the heaviest chimera (i.e. chimera 4c) and of 282 to 0.27 μM for the lightest chimera (i.e. chimera 4a). Colonies grown overnight (i.e. approximately 18 hours) on BHI agar were suspended in 0.9% saline to give a turbidity of 0.13 at OD546 (approximately 1 × 10^8 CFU/mL), and then diluted in MHB pH 7.4 to a final concentration of 5 × 10^5 CFU/mL in each well. Following CLSI guidelines the media for testing of Listeria monocytogenes strains were supplemented with 2.5% lysed horse blood. Polypropylene plates (Nunc 442587) were used to minimize peptide binding and incubation time was 18-20 hours at 37°C. MIC was determined in a minimum of two technical replicates as the lowest concentration of the peptide analogue where no visible growth was found. The Minimum Bactericidal Concentration (MBC) was determined by plating 10 μL of the suspension from the first three wells without growth on BHI agar and incubating these for 24 hours at 37°C. MBC was the lowest concentration at which a 99.9% reduction in CFU/mL was observed. Activity is expressed in μmol/L to enable a direct comparison of analogues with different length (= size).

In a further test the test system is S. aureus. Briefly: ATP leakage bioluminescence assay. The format is cell-based, Staphylococcus aureus. The settings on record: 1000 μg/mL chimera. On the procedure:
(§1) Pore formation as caused by peptide addition was determined by measuring ATP leakage from the bacterial cell using a bioluminescence assay. The assay was used to estimate differences between sub-typical chimeras 1, 2 and 3 on S. aureus and S. marcescens and to evaluate the effect of chain length of mixed type chimeras 4a, 4b and 4c on S. aureus. In brief, bacteria were grown in TSB at 37°C for 24 hours and then re-inoculated in TSB at 37°C for 6-8 hours until an absorbance at 546 nm of 2.5 for S. aureus and 2.0 for S. marcescens and then harvested (10 min at 2,000 × g). The bacteria were grown to a high absorbance since a high concentration of bacteria was necessary in order to get a measurable response in the ATP leakage assay. Cells were washed once in 50 mM potassium phosphate buffer (pH 7.0) and once in 50 mM HEPES buffer (pH 7.0), before the pellet was resuspended in HEPES buffer to an OD546 ~ 10, and then stored on ice. Before chimera addition bacteria were pre-incubated with 0.2% (w/v) glucose to energize the cells. In general a chimera dose of 1000 μg/mL (corresponding to 280-552 μM for all chimeras) was used for all assays; however, for determining dose response curves additional doses of 100 (28-55 μM), 250 (71-137 μM) and 500 (140-276 μM) μg/mL were tested, and only the immediate release was noted. Total ATP and extracellular ATP were determined with a luminometer […]. Intracellular volumes of S. aureus and S. marcescens (0.85 μm^3 and 1.7 μm^3, respectively) were subtracted from the total volume before calculating the extracellular ATP concentration; the intracellular ATP concentration could then be calculated from this and the total ATP. ATP leakage kinetics was determined on a bacterial suspension prepared as above. Samples were taken at time 0, 5, 10, 20, 30 and 60 minutes and viable counts determined. Both the ATP leakage assay and killing kinetics performed under the same assay conditions were performed in two independent experiments.

The subject of a further test is S. marcescens. Briefly: ATP leakage bioluminescence assay. The format is cell-based, Serratia marcescens. The settings on record: 1000 μg/mL chimera. On the procedure: as §1
On the set-up of test [2]: method as in PMID 18675778. As to conditions: unilamellar liposomes mimicking human cell membranes; ref [24]; cited from earlier work.

Take `CC(=O)N[C@@H](CCCCN)C(=O)N(CCC(=O)N[C@@H](CCCCN)C(=O)N(CCC(=O)N[C@@H](CCCCN)C(=O)N(CCC(=O)N[C@@H](CCCCN)C(=O)N(CCC(=O)N[C@@H](CCCCN)C(=O)N(CCC(=O)N[C@@H](CCCCN)C(=O)N(CCC(=O)N[C@@H](CCCCN)C(=O)N(CCC(=O)N[C@@H](CCCCN)C(=O)N(CCC(N)=O)[C@@H](C)c1ccccc1)[C@@H](C)c1ccccc1)[C@@H](C)c1ccccc1)[C@@H](C)c1ccccc1)[C@@H](C)c1ccccc1)[C@@H](C)c1ccccc1)[C@@H](C)c1ccccc1)[C@@H](C)c1ccccc1` [Chimera 3]: the “lower activity compared to chimera 2 against E.coli” value in test [1] is given as 2-7 fold. Moreover, in test [1], the “lower activity compared to chimera 2 against S. aureus and K. pneumoniae” value is on record as 6-13 fold. The “ATP leakage (in words)” value in the test on S. aureus and with S. marcescens was “caused leakage of ATP” throughout. For the same compound, the “ability to induce calcein leakage” value in test [2] was “positive response”.

Values taken from PMC3224213, “Bacterial membrane activity of α-peptide/β-peptoid chimeras: Influence of amino acid composition and chain length on the activity against different bacterial strains” (BMC Microbiology, 2011).
